Columns and labels:
[1] = test system: MOLT-4; assay: NCI-60 single-dose screen; type: cell-based; details: Homo sapiens, single dose 10 µM, '-' = no inhibition, read-out: % Growth Inhibition
How it was run: (§1)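 Single concentration (10 μM) per compound, assayed by the NCI DTP against its 60-line panel covering leukemia, lung, colon, CNS, melanoma, ovarian, renal, prostate and breast cancers.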

[2] = test system: DU-145; assay: NCI-60 single-dose screen; type: cell-based; details: Homo sapiens, single dose 10 µM, '-' = no inhibition, read-out: % Growth Inhibition
How it was run: as §1

[3] = test system: SF-295; assay: NCI-60 single-dose screen; type: cell-based; details: Homo sapiens, single dose 10 µM, '-' = no inhibition, read-out: % Growth Inhibition
How it was run: as §1

[4] = test system: NCI-H460; assay: NCI-60 single-dose screen; type: cell-based; details: Homo sapiens, single dose 10 µM, '-' = no inhibition, read-out: % Growth Inhibition
How it was run: as §1

[5] = test system: A498; assay: NCI-60 single-dose screen; type: cell-based; details: Homo sapiens, single dose 10 µM, '-' = no inhibition, read-out: % Growth Inhibition
How it was run: as §1

[6] = test system: KM12; assay: NCI-60 single-dose screen; type: cell-based; details: Homo sapiens, single dose 10 µM, '-' = no inhibition, read-out: % Growth Inhibition
How it was run: as §1

[7] = test system: EKVX; assay: NCI-60 single-dose screen; type: cell-based; details: Homo sapiens, single dose 10 µM, '-' = no inhibition, read-out: % Growth Inhibition
How it was run: as §1

[8] = test system: RXF 393; assay: NCI-60 single-dose screen; type: cell-based; details: Homo sapiens, single dose 10 µM, '-' = no inhibition, read-out: % Growth Inhibition
How it was run: as §1

[9] = test system: NCI-H23; assay: NCI-60 single-dose screen; type: cell-based; details: Homo sapiens, single dose 10 µM, '-' = no inhibition, read-out: % Growth Inhibition
How it was run: as §1

[10] = test system: M14; assay: NCI-60 single-dose screen; type: cell-based; details: Homo sapiens, single dose 10 µM, '-' = no inhibition, read-out: % Growth Inhibition
How it was run: as §1

[11] = test system: NCI-H522; assay: NCI-60 single-dose screen; type: cell-based; details: Homo sapiens, single dose 10 µM, '-' = no inhibition, read-out: % Growth Inhibition
How it was run: as §1

[12] = test system: MDA-MB231/ATCC; assay: NCI-60 single-dose screen; type: cell-based; details: Homo sapiens, MDA-MB-231, single dose 10 µM, '-' = no inhibition, read-out: % Growth Inhibition
How it was run: as §1

[13] = test system: MDA-MB-435; assay: NCI-60 single-dose screen; type: cell-based; details: Homo sapiens, single dose 10 µM, '-' = no inhibition, read-out: % Growth Inhibition
How it was run: as §1

[14] = test system: SNB-75; assay: NCI-60 single-dose screen; type: cell-based; details: Homo sapiens, single dose 10 µM, '-' = no inhibition, read-out: % Growth Inhibition
How it was run: as §1

[15] = test system: HCC-2998; assay: NCI-60 single-dose screen; type: cell-based; details: Homo sapiens, single dose 10 µM, '-' = no inhibition, read-out: % Growth Inhibition
How it was run: as §1

[16] = test system: MALME-3M; assay: NCI-60 single-dose screen; type: cell-based; details: Homo sapiens, single dose 10 µM, '-' = no inhibition, read-out: % Growth Inhibition
How it was run: as §1

[17] = test system: MDA-MB-468; assay: NCI-60 single-dose screen; type: cell-based; details: Homo sapiens, single dose 10 µM, '-' = no inhibition, read-out: % Growth Inhibition
How it was run: as §1

[18] = test system: PC-3; assay: NCI-60 single-dose screen; type: cell-based; details: Homo sapiens, single dose 10 µM, '-' = no inhibition, read-out: % Growth Inhibition
How it was run: as §1

[19] = test system: SW-620; assay: NCI-60 single-dose screen; type: cell-based; details: Homo sapiens, single dose 10 µM, '-' = no inhibition, read-out: % Growth Inhibition
How it was run: as §1

[20] = test system: SF-268; assay: NCI-60 single-dose screen; type: cell-based; details: Homo sapiens, single dose 10 µM, '-' = no inhibition, read-out: % Growth Inhibition
How it was run: as §1

[21] = test system: RPMI-8226; assay: NCI-60 single-dose screen; type: cell-based; details: Homo sapiens, single dose 10 µM, '-' = no inhibition, read-out: % Growth Inhibition
How it was run: as §1

[22] = test system: BT-549; assay: NCI-60 single-dose screen; type: cell-based; details: Homo sapiens, single dose 10 µM, '-' = no inhibition, read-out: % Growth Inhibition
How it was run: as §1

[23] = test system: SF-539; assay: NCI-60 single-dose screen; type: cell-based; details: Homo sapiens, single dose 10 µM, '-' = no inhibition, read-out: % Growth Inhibition
How it was run: as §1

[24] = test system: ACHN 1; assay: NCI-60 single-dose screen; type: cell-based; details: Homo sapiens, single dose 10 µM, '-' = no inhibition, read-out: % Growth Inhibition
How it was run: as §1

[25] = test system: SK-MEL-2; assay: NCI-60 single-dose screen; type: cell-based; details: Homo sapiens, single dose 10 µM, '-' = no inhibition, read-out: % Growth Inhibition
How it was run: as §1

[26] = test system: K-562; assay: NCI-60 single-dose screen; type: cell-based; details: Homo sapiens, K562, single dose 10 µM, '-' = no inhibition, read-out: % Growth Inhibition
How it was run: as §1

[27] = test system: LOX IMVI; assay: NCI-60 single-dose screen; type: cell-based; details: Homo sapiens, single dose 10 µM, '-' = no inhibition, read-out: % Growth Inhibition
How it was run: as §1

[28] = test system: IGROV1; assay: NCI-60 single-dose screen; type: cell-based; details: Homo sapiens, IGROV-1, single dose 10 µM, '-' = no inhibition, read-out: % Growth Inhibition
How it was run: as §1

[29] = test system: OVCAR-3; assay: NCI-60 single-dose screen; type: cell-based; details: Homo sapiens, single dose 10 µM, '-' = no inhibition, read-out: % Growth Inhibition
How it was run: as §1

[30] = test system: CAKI-1; assay: NCI-60 single-dose screen; type: cell-based; details: Homo sapiens, single dose 10 µM, '-' = no inhibition, read-out: % Growth Inhibition
How it was run: as §1

[31] = test system: HT29; assay: NCI-60 single-dose screen; type: cell-based; details: Homo sapiens, HT-29, single dose 10 µM, '-' = no inhibition, read-out: % Growth Inhibition
How it was run: as §1

[32] = test system: UO-31; assay: NCI-60 single-dose screen; type: cell-based; details: Homo sapiens, single dose 10 µM, '-' = no inhibition, read-out: % Growth Inhibition
How it was run: as §1

[33] = test system: SNB-19; assay: NCI-60 single-dose screen; type: cell-based; details: Homo sapiens, single dose 10 µM, '-' = no inhibition, read-out: % Growth Inhibition
How it was run: as §1

[34] = test system: TK-10; assay: NCI-60 single-dose screen; type: cell-based; details: Homo sapiens, single dose 10 µM, '-' = no inhibition, read-out: % Growth Inhibition
How it was run: as §1

[35] = test system: SK-MEL-28; assay: NCI-60 single-dose screen; type: cell-based; details: Homo sapiens, single dose 10 µM, '-' = no inhibition, read-out: % Growth Inhibition
How it was run: as §1

[36] = test system: OVCAR-8; assay: NCI-60 single-dose screen; type: cell-based; details: Homo sapiens, single dose 10 µM, '-' = no inhibition, read-out: % Growth Inhibition
How it was run: as §1

[37] = test system: CCRF-CEM; assay: NCI-60 single-dose screen; type: cell-based; details: Homo sapiens, single dose 10 µM, '-' = no inhibition, read-out: % Growth Inhibition
How it was run: as §1

[38] = test system: SR; assay: NCI-60 single-dose screen; type: cell-based; details: Homo sapiens, single dose 10 µM, '-' = no inhibition, read-out: % Growth Inhibition
How it was run: as §1

[39] = test system: MCF7; assay: NCI-60 single-dose screen; type: cell-based; details: Homo sapiens, single dose 10 µM, '-' = no inhibition, read-out: % Growth Inhibition
How it was run: as §1

[40] = test system: HL-60(TB); assay: NCI-60 single-dose screen; type: cell-based; details: Homo sapiens, single dose 10 µM, '-' = no inhibition, read-out: % Growth Inhibition
[41] = test system: SK-OV-3; assay: NCI-60 single-dose screen; type: cell-based; details: Homo sapiens, single dose 10 µM, '-' = no inhibition, read-out: % Growth Inhibition
How it was run: as §1

[42] = test system: UACC-62; assay: NCI-60 single-dose screen; type: cell-based; details: Homo sapiens, single dose 10 µM, '-' = no inhibition, read-out: % Growth Inhibition
How it was run: as §1

[43] = test system: SN12C; assay: NCI-60 single-dose screen; type: cell-based; details: Homo sapiens, single dose 10 µM, '-' = no inhibition, read-out: % Growth Inhibition
How it was run: as §1

[44] = test system: UACC-257; assay: NCI-60 single-dose screen; type: cell-based; details: Homo sapiens, single dose 10 µM, '-' = no inhibition, read-out: % Growth Inhibition
How it was run: as §1

[45] = test system: NCI/ADR-RES; assay: NCI-60 single-dose screen; type: cell-based; details: Homo sapiens, single dose 10 µM, '-' = no inhibition, read-out: % Growth Inhibition
How it was run: as §1

[46] = test system: HCT-15; assay: NCI-60 single-dose screen; type: cell-based; details: Homo sapiens, single dose 10 µM, '-' = no inhibition, read-out: % Growth Inhibition
How it was run: as §1

[47] = test system: NCI-H322M; assay: NCI-60 single-dose screen; type: cell-based; details: Homo sapiens, single dose 10 µM, '-' = no inhibition, read-out: % Growth Inhibition
How it was run: as §1

CCCSc1nc(-c2ccc(OC)cc2)cc(-c2cccc(OC)c2)n1 [Compound 18, 6-(3-Methoxyphenyl)-4-(4-methoxyphenyl)-2-(propylthio)pyrimidine]
melting point: 218 to 220 °C | inhibition at 10 µM [1]: 6.49% | inhibition at 10 µM [2]: < 0% | inhibition at 10 µM [3]: < 0% | inhibition at 10 µM [4]: < 0% | inhibition at 10 µM [5]: < 0% | inhibition at 10 µM [6]: 1.47% | inhibition at 10 µM [7]: < 0% | inhibition at 10 µM [8]: < 0% | inhibition at 10 µM [9]: < 0% | inhibition at 10 µM [10]: 9.08% | inhibition at 10 µM [11]: < 0% | inhibition at 10 µM [12]: < 0% | inhibition at 10 µM [13]: 5.12% | inhibition at 10 µM [14]: < 0% | inhibition at 10 µM [15]: < 0% | inhibition at 10 µM [16]: < 0% | inhibition at 10 µM [17]: < 0% | inhibition at 10 µM [18]: < 0% | inhibition at 10 µM [19]: < 0% | inhibition at 10 µM [20]: < 0% | inhibition at 10 µM [21]: < 0% | inhibition at 10 µM [22]: < 0% | inhibition at 10 µM [23]: < 0% | inhibition at 10 µM [24]: < 0% | inhibition at 10 µM [25]: 3.6% | inhibition at 10 µM [26]: 12.8% | inhibition at 10 µM [27]: < 0% | inhibition at 10 µM [28]: < 0% | inhibition at 10 µM [29]: < 0% | inhibition at 10 µM [30]: 4% | inhibition at 10 µM [31]: 4.83% | inhibition at 10 µM [32]: < 0% | inhibition at 10 µM [33]: < 0% | inhibition at 10 µM [34]: < 0% | inhibition at 10 µM [35]: < 0% | inhibition at 10 µM [36]: < 0% | inhibition at 10 µM [37]: < 0% | inhibition at 10 µM [38]: 14.9% | inhibition at 10 µM [39]: 17.3% | inhibition at 10 µM [40]: 20.3% | inhibition at 10 µM [41]: < 0% | inhibition at 10 µM [42]: < 0% | inhibition at 10 µM [43]: < 0% | inhibition at 10 µM [44]: < 0% | inhibition at 10 µM [45]: < 0% | inhibition at 10 µM [46]: 8.49% | inhibition at 10 µM [47]: < 0%
